Experimental data taken from paper PMC3203607 (Nucleic Acids Research, 2011).

Columns and labels:
Assay type in all cases: binding
[1] = target: T1, Ascaris eIF4E-3 (Ascaris suum, UniProt Q6PKX2); assay: fluorescence titration; settings: read-out: KD (μM) / Ascaris eIF4E-3; 50 mM HEPES/KOH pH 7.20, 200 mM KCl, 1 mM DTT, 0.5 mM EDTA, 20 °C
T1 sequence (Q6PKX2 1-236): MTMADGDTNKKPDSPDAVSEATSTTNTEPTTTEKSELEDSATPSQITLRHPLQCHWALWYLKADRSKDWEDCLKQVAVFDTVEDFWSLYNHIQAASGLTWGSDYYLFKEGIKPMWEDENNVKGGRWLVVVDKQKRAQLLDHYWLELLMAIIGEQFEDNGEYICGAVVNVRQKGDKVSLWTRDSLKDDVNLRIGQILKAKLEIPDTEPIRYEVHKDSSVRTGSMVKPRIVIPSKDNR

[2] = target: T2, Ascaris eIF4E-3 (49–236) (Ascaris suum, UniProt Q6PKX2); assay: isothermal titration calorimetry
T2 sequence (Q6PKX2 49-236): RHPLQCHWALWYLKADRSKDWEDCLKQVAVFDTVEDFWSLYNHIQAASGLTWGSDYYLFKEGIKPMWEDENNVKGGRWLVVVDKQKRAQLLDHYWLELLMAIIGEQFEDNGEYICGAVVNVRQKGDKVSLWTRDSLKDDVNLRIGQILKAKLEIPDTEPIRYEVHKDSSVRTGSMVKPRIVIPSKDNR

[3] = target: Human eIF4E (28–217) (Homo sapiens, UniProt P06730); assay: fluorescence titration
Chain of Human eIF4E (28–217) (P06730 28-217): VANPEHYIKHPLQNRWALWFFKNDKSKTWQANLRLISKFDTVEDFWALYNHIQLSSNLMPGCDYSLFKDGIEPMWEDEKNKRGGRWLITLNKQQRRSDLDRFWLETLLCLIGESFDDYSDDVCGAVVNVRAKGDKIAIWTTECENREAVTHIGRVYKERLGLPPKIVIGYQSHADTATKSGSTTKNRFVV

[4] = target: T3, Ascaris eIF4E-3 (Ascaris suum, UniProt Q6PKX2, E116D); assay: isothermal titration calorimetry; settings: 20 mM HEPES pH 7.4, 1 mM EDTA, 100 mM KCl, 20 °C
T3 sequence (Q6PKX2 1-236 E116D): T1 sequence (Q6PKX2 1-236)

[5] = target: T1, Ascaris eIF4E-3; assay: isothermal titration calorimetry; settings: 20 mM HEPES pH 7.4, 1 mM EDTA, 100 mM KCl, 20 °C; single-site model
[6] = target: Human eIF4E (Homo sapiens, UniProt P06730); assay: isothermal titration calorimetry
Chain of Human eIF4E (P06730 whole entry): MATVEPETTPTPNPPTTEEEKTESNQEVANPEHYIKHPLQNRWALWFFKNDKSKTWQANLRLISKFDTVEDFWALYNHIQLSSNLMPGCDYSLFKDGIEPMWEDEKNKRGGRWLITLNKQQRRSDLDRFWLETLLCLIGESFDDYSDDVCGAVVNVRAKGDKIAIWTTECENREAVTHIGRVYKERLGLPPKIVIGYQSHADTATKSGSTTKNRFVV

SMILES | Kd [1] [µM] | Kd [2] [µM] | Kd [3] [µM] | Kd [4] [µM] | Kd [5] [µM] | Kd [6] [µM]
C[n+]1cn([C@@H]2O[C@H](COP(=O)(O)OP(=O)(O)OP(=O)(O)OC[C@H]3O[C@@H](n4cnc5c(=O)[nH]c(N)nc54)[C@H](O)[C@@H]3O)[C@@H](O)[C@H]2O)c2nc(N)[nH]c(=O)c21 [m^7GpppG] | 0.787 ± 0.025 | 0.75 ± 0.19 |  |  |  | 
CN(C)c1nc2c(c(=O)[nH]1)[n+](C)cn2[C@@H]1O[C@H](COP(=O)(O)OP(=O)(O)OP(=O)(O)OC[C@H]2O[C@@H](n3cnc4c(=O)[nH]c(N)nc43)[C@H](O)[C@@H]2O)[C@@H](O)[C@H]1O [m^2,2,7GpppG] |  |  | 3.1 ± 1.1 |  |  | 
C[n+]1cn([C@@H]2O[C@H](COP(=O)(O)OP(=O)(O)OP(=O)(O)O)[C@@H](O)[C@H]2O)c2nc(N)[nH]c(=O)c21 [m^7GTP] |  | 0.17 ± 0.05 |  | 1.98 ± 0.2 | 0.24 ± 0.04 | 
CN(C)c1nc2c(c(=O)[nH]1)[n+](C)cn2[C@@H]1O[C@H](COP(=O)(O)OP(=O)(O)OP(=O)(O)O)[C@@H](O)[C@H]1O [m^2,2,7GTP] |  | 12.2 ± 3.9 |  | 7 ± 0.1 | 8.4 ± 1 | 4.56 ± 2.1
Nc1nc2c(ncn2[C@@H]2O[C@H](COP(=O)(O)OP(=O)(O)OP(=O)(O)O)[C@@H](O)[C@H]2O)c(=O)[nH]1 [GTP] | 83 ± 14 |  |  |  |  | 
